Source: US12258578B2, “Agent for accelerating maturation or aging of cells” (JUNTENDO EDUCATIONAL FOUNDATION, priority 2019, dated 2025)
“Also recorded” adds a separate entry of the source.

Experiments:
[1] = test system: nerve cells induced from human iPS cells; assay: GFP-Synapsin fluorescent reporter screening for nerve cell maturation; format: cell-based; details: for acceleration of cell maturation: human iPS cell-derived neurons, same manner as in Example 1
Protocol: (1) A nerve cell cluster (Neurosphere) containing neural stem cells was prepared in suspension culture from iPS cells, passaged six times, and differentiated into nerves. A mature nerve cell-specific fluorescent reporter (GFP-Synapsin) was introduced using a lentiviral vector. Thereafter, the culture was switched to adherent culture, and 10 μM each of the low-molecular compound library (Sigma Aldrich) was added to the culture medium for neural differentiation, and the culture was performed for 17 days. The fluorescence intensity of GFP-Synapsin was quantified using an imaging cytometer (In cell analyzer). Using an astrocyte conditioned medium (ACM), which accelerates neural differentiation, as a control, compounds showing a fluorescence intensity closer to the control were selected (FIG. 1 and FIG. 2).

[2] = test system: dopaminergic neurons (DAN) differentiated from human iPS cells; assay: Quantification of tyrosine hydroxylase (TH) positive cells (DAN); format: cell-based; details: 1, 5 or 10 μM
Protocol: (1) When neural differentiation of human iPS cells into dopaminergic nerve cells was performed, KU-60019 was added to the neural differentiation medium at 1, 5 or 10 μM, followed by culture for 10 days, and the cells expressing Nestin, which is a marker of undifferentiated nervous system, were quantified to evaluate the differentiation efficiency (the culture conditions are shown in FIG. 3). […] (2) In order to compare the amounts of dopaminergic neurons (DAN) differentiated by the same method as in (1), the quantification of tyrosine hydroxylase (TH) positive cells, which is a specific marker of mature DAN, was performed (FIG. 6).

[3] = test system: DAN from human iPS cells; assay: Lamin B1 immunostaining of iPS cell-derived DAN; format: cell-based; details: day 7
Protocol: (1) The differentiation induction of DAN from human iPS cells was performed using the same method as in Example 2(2), and immunostaining using a Lamin B1 antibody was performed on day 7 (FIGS. 8-A-C).

[4] = test system: SHSY5 cells; assay: Cell aging of SHSY5 cells (nuclear membrane staining, qPCR); format: cell-based, human
Description: A decrease in Lamin B1 (LMNB1) mRNA (FIG. 12B), an increase in aging marker p16 mRNA (FIG. 12C) and a […] in aging marker p21 mRNA were detected by qPCR (mean±SEM, n=4, *p<0.01.) (FIG. 12D). That is, also in SHSY5 (immortalized cell line of human nervous system), a breakdown of the nuclear membrane was observed by the addition of KU60019.

[5] = test system: iPS cell-derived nerve cells (DAN); assay: Intracellular NAD+ concentration by colorimetric method; format: cell-based, human; details: cells recovered after 10 days
Protocol: (3) The differentiation induction of DAN was performed using the same method as in (2), the cells were recovered after 10 days, and the intracellular NAD^+ concentration was measured using a colorimetric method (FIG. 7).

[6] = test system: PARK4-iPS cell-derived DAN; assay: Cell loss of PARK4-iPS cell-derived DAN (TH antibody); format: cell-based, human
Description: Since KU-60019 accelerates neural differentiation from human iPS cells and cell aging, it was verified whether the culture period required for phenotypic detection in DAN differentiated from Parkinson's disease-iPS cells could be shortened by the addition of KU-60019 to a conventional culture method. The culture periods required until phenotypic detection in the case of addition of KU-60019 and in the case of non-addition of KU-60019 were compared using iPS cells established from a patient with typical PARK 4 (α-synuclein duplication), which develops at a relatively old age (50s and beyond) among hereditary Parkinson's diseases. (1) After performing the differentiation induction of PARK4-iPS cell-derived DAN using the same method as in Example 2(2), the cell loss of DAN was analyzed on days 7 and 10 using a TH antibody.

[7] = test system: human fibroblasts derived from a young donor; assay: Aging-specific marker SA-Gal in human fibroblasts; format: cell-based
[8] = test system: human iPS cells differentiated into dopaminergic nerve cells; assay: Quantification of Nestin-positive cells during dopaminergic neural differentiation; format: cell-based; details: 1, 5 or 10 μM, culture for 10 days
Protocol: (1) When neural differentiation of human iPS cells into dopaminergic nerve cells was performed, KU-60019 was added to the neural differentiation medium at 1, 5 or 10 μM, followed by culture for 10 days, and the cells expressing Nestin, which is a marker of undifferentiated nervous system, were quantified to evaluate the differentiation efficiency (the culture conditions are shown in FIG. 3).

[9] = test system: human fibroblasts derived from a young donor; assay: Aging-specific nuclear membrane abnormalities in human fibroblasts (Lamin B1, Lamin A/C); format: cell-based
Description: The proportion of cells showing normal nuclear membrane structure in fibroblasts derived from a young donor was reduced by the action of KU60019 (mean±SEM, n=6, *p<0.01.) (FIG. 10B). In fibroblasts collected from an old donor, when compared with human fibroblasts collected from a young donor, a decrease in Lamin B1, which is a nuclear membrane marker, as an aging-specific nuclear membrane abnormality is observed.

[10] = test system: DAN from human iPS cells; assay: γH2AX (Ser139) immunostaining of iPS cell-derived DAN; format: cell-based; details: day 7
Protocol: (2) The differentiation induction of DAN from human iPS cells was performed using the same method as in Example 2(2), and immunostaining using a γH2AX (Ser139) antibody was performed on day 7 (FIGD. 8-D-F).

O=c1cc(-c2cccc3c2Sc2ccccc2S3)oc(N2CCOCC2)c1 [KU55933]
acceleration of cell maturation [1]: only in the cells to which KU60019 was added

C[C@@H]1CN(CC(=O)Nc2ccc3c(c2)Cc2cccc(-c4cc(=O)cc(N5CCOCC5)o4)c2S3)C[C@H](C)O1 [KU-60019]
TH positive cells (DAN) ([2]; culture continued to day 10): this difference disappeared
TH positive cells (DAN) ([2]; day 7 of culture): increased depending on the concentration
structure of Lamin B1 (nuclear membrane) [3]: degraded
aging-specific nuclear membrane abnormalities ([4]; SHSY5 cells, Lamin B1 / Lamin A/C staining): aging-specific nuclear membrane abnormalities were caused
Lamin B1 (LMNB1) mRNA ([4]; qPCR, n=4, p<0.01): decrease
aging marker p16 mRNA ([4]; qPCR, n=4, p<0.01): increase; also recorded: significantly elevated
intracellular NAD+ concentration [5]: decreased depending on the concentration
cell loss of DAN compared to normal control cells ([6]; day 7 of culture): no significant increase in cell loss
cell loss of DAN compared to normal control cells ([6]; day 10 of culture): lost cells significantly increased
culture time until Parkinson's disease phenotype is detected ([6]; nerve cells derived from iPS cells of a Parkinson's disease patient): 7 days
fluorescence intensity of GFP-Synapsin ([1]; 10 μM, 17 days culture, compound library screening): highest fluorescence intensity among the compounds selected
acceleration of cell maturation [1]: acceleration of cell maturation was observed
SA-Gal positive cells [7]: increased to a level equivalent to that in fibroblasts derived from an old donor
SA-Gal intensity ([7]; n=6, p<0.01): increased similarly
amount of Nestin-positive cells [8]: decreased depending on the concentration
aging-specific nuclear membrane abnormality (Lamin B1) ([9]; fibroblasts derived from a young donor): reduction of Lamin B1
proportion of cells showing normal nuclear membrane structure ([9]; fibroblasts derived from a young donor, n=6, p<0.01): reduced
Lamin B1 (nuclear membrane marker) ([9]; young donor-derived fibroblasts, added for 72 hours): a decrease in Lamin B1 was found
γH2AX accumulation (DNA damage) [10]: accumulated in the nucleus

O=c1cc(N2CCOCC2)oc2c(-c3cccc4c3sc3ccccc34)cccc12 [NU7441]
acceleration of cell maturation [1]: only in the cells to which KU60019 was added
